Values quoted from earlier work in the PKSmart pharmacokinetics tables (Seal et al. 2025).

Assay: Lombardo, Berellini, Obach 2018, Drug Metab Dispos 46:1466, doi 10.1124/dmd.118.082966
Conditions: human; for MRT / Vd / clearance / half-life: in vivo, iv; for fraction unbound: plasma

SMILES | MRT | Vd | clearance | half-life | fraction unbound
CN(c1nccc(=O)[nH]1)C1CCN(c2nc3ccccc3n2Cc2ccc(F)cc2)CC1 | 6 h | 0.38 L/kg | 1.03 mL/min/kg | 9.6 h | –
CCN(CC)CCN1C(=O)c2c(c3c4cccc(Cl)c4n([C@@H]4O[C@H](CO)[C@@H](OC)[C@H](O)[C@H]4O)c3c3[nH]c4c(Cl)cccc4c23)C1=O | 45.4 h | 8.9 L/kg | 3.13 mL/min/kg | 48.9 h | –
O=C(NC[C@H]1CN(c2ccc(N3CCOCC3=O)cc2)C(=O)O1)c1ccc(Cl)s1 | 4.9 h | 0.7 L/kg | 2.4 mL/min/kg | 7 h | 0.06
OCCN1CCN(CCCN2c3ccccc3Sc3ccc(Cl)cc32)CC1 | 11 h | 18 L/kg | 27 mL/min/kg | 9.4 h | 0.07
CC(=O)N(CC[C@@](CCN1CCCCC1)(C(N)=O)c1ccccc1Cl)C(C)C | 7.9 h | 2.6 L/kg | 5.43 mL/min/kg | 12 h | –
NS(=O)(=O)c1cc2c(cc1C(F)(F)F)NCNS2(=O)=O | 3.8 h | 2.2 L/kg | 9.7 mL/min/kg | 5.2 h | –
C[C@@H](Cc1ccccc1)NC(=O)C(N)CCCCN (stereo partly drawn) | 0.6 h | 0.6 L/kg | 17 mL/min/kg | 1.2 h | –
C[C@H]1O[C@@H](n2cc(F)c(=O)[nH]c2=O)[C@H](O)[C@@H]1O | 0.46 h | 0.28 L/kg | 11 mL/min/kg | 0.35 h | –
COC(=O)C1=C(C)NC(C)=C(C(=O)OC(C)C)C1c1cccc2nonc12 (stereo not drawn) | 1 h | 1.5 L/kg | 26 mL/min/kg | 3.3 h | 0.04
NCC1CCC(C(=O)O)CC1 (stereo not drawn) | 2.6 h | 0.38 L/kg | 2.4 mL/min/kg | 2.3 h | –
C[C@@H]([C@@](O)(Cn1cncn1)c1ccc(F)cc1F)S(C)(=O)=O | 54 h | 0.62 L/kg | 0.19 mL/min/kg | 49 h | –
C[C@@H]1C[C@@H]2[C@@H]3CC=C4CC(=O)C=C[C@]4(C)C3=CC[C@]2(C)C1C(=O)CN1CCN(c2cc(N3CCCC3)nc(N3CCCC3)n2)CC1 (stereo partly drawn) | 23.2 h | 9.8 L/kg | 7 mL/min/kg | 49.3 h | 0.006
COc1ccc([C@@H]2Sc3cc(Cl)ccc3N(CCN(C)C)C(=O)C2OC(C)=O)cc1 (stereo partly drawn) | 12.3 h | 9.7 L/kg | 13.7 mL/min/kg | 10.6 h | 0.1
COc1ccc(/C=C\c2cc(OC)c(OC)c(OC)c2)cc1OP(=O)(O)O | 0.3 h | 0.11 L/kg | 5.86 mL/min/kg | 0.47 h | 0.23
CCCCNc1cc(C(=O)O)cc(S(N)(=O)=O)c1Oc1ccccc1 | 1.1 h | 0.16 L/kg | 2.5 mL/min/kg | 1.2 h | –
CC(C)(N)CC(=O)NC1CCc2ccccc2N(Cc2ccc(-c3ccccc3-c3nnn[nH]3)cc2)C1=O (stereo not drawn) | 1.1 h | 0.2 L/kg | 3.05 mL/min/kg | 3.8 h | 0.06
COc1ccnc(C[S+](O)c2nc3cc(-n4cccc4)ccc3[n-]2)c1C (stereo not drawn) | 4.32 h | 0.19 L/kg | 0.73 mL/min/kg | 3.59 h | –
COC1C(=O)C(C)C[C@H](C)C=CC=CC=C(C)[C@@H](OC)C[C@@H]2CC[C@@H](C)[C@@](O)(O2)C(=O)C(=O)N2CCCCC2C(=O)O[C@H]([C@H](C)C[C@@H]2CC[C@@H](OP(C)(C)=O)[C@H](OC)C2)CC(=O)C(C)=CC(C)[C@H]1O (stereo partly drawn) | 48.5 h | 3.2 L/kg | 1.1 mL/min/kg | 46.3 h | –
Cc1ccc(-c2ncc(Cl)cc2-c2ccc(S(C)(=O)=O)cc2)cn1 | 32 h | 1.5 L/kg | 0.79 mL/min/kg | 26 h | 0.081
C[N+](C)(C)NCCC(=O)[O-] | 4.3 h | 0.7 L/kg | 2.8 mL/min/kg | 6.2 h | –
Nc1nc2c(Cc3cccnc3)c[nH]c2c(=O)[nH]1 | 3.2 h | 1.2 L/kg | 6.2 mL/min/kg | 3 h | 0.86
C#C[C@]1(O)C=C[C@H]2[C@@H]3CC=C4CC(=O)CCC4[C@H]3CC[C@@]21CC (stereo partly drawn) | 9.6 h | 0.46 L/kg | 0.8 mL/min/kg | 10 h | 0.023
CO[C@H]1/C=C/O[C@@]2(C)Oc3c(C)c(O)c4c(O)c(c(/C=N/N5CCN(C)CC5)c(O)c4c3C2=O)NC(=O)C(C)=CC=CC(C)[C@H](O)[C@@H](C)[C@@H](O)[C@@H](C)[C@H](OC(C)=O)[C@@H]1C (stereo partly drawn) | 4.6 h | 0.97 L/kg | 3.5 mL/min/kg | – | –
OCc1ncc2n1-c1ccc(Cl)cc1C(c1ccccc1F)=NC2 | 1.3 h | 0.77 L/kg | 9.71 mL/min/kg | 1.1 h | 0.1
CC[C@@H](c1cccc(O)c1)[C@@H](C)CN(C)C | 3.62 h | 4.64 L/kg | 21.3 mL/min/kg | 2.39 h | –
CN(C)CCCN1c2ccccc2CCc2cc(O)ccc21 | 12 h | 6.6 L/kg | 9.2 mL/min/kg | 10 h | 0.36
N[C@@H]1CN(c2c(F)cc3c(=O)c(C(=O)O)cn([C@@H]4C[C@@H]4F)c3c2Cl)CC12CC2 | 6.7 h | 1.5 L/kg | 3.7 mL/min/kg | 6.6 h | –
N=C(N)Nc1ccc(C(=O)Oc2ccc3cc(C(=N)N)ccc3c2)cc1 | 1.15 h | 5.71 L/kg | 82 mL/min/kg | 1.84 h | –
